Test results published in patent US20250326769A1, “HETEROAROMATIC MACROCYCLIC ETHER CHEMOTHERAPEUTIC AGENTS” (Nuvalent, Inc., priority 2022, published 2025).
Like-named read-outs stand apart in the source and are kept apart here.

Legend:
[1] = biological target: Ba/F3 EML4-ALK v1 I1171N/D1203N (Homo sapiens (Human), UniProt Q9HC35+Q9UM73, D1203N/I1171N); experiment: Ba/F3 cell proliferation assay, EML4-ALK v1 I1171N/D1203N; assay type: cell-based; conditions: for IC50: Ba/F3 stable cells, 72 hours, CellTiter-Glo; for ETV6-TRKB / EML4-ALK v1 I1171N/D1203N: TRKB selectivity, ratio of Ba/F3 IC50 values
How it was run: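 Ba/F3 cells made IL-3-independent by retroviral EML4-ALK v1 I1171N/D1203N and selected with puromycin, then treated with 3-fold compound dilutions for 72 h. Viability by CellTiter-Glo luminescence; IC50 from four-parameter logistic fit.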

Ba/F3 EML4-ALK v1 I1171N = Ba/F3 EML4-ALK v1 I1171N (Homo sapiens (Human), UniProt Q9HC35+Q9UM73, I1171N); experiment: Ba/F3 cell proliferation assay, EML4-ALK v1 I1171N; assay type: cell-based; conditions: for IC50: Ba/F3 stable cells, 72 hours, CellTiter-Glo; for ETV6-TRKB / EML4-ALK v1 I1171N: TRKB selectivity, ratio of Ba/F3 IC50 values
How it was run: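 Ba/F3 cells stably transformed with retroviral EML4-ALK v1 I1171N, selected by IL-3 withdrawal and puromycin, grown IL-3-free. Compounds added as 3-fold dilution series, 72 h incubation; viability by CellTiter-Glo luminescence. IC50 from percent inhibition by four-parameter logistic fit, binned A/B/C.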

TRKB-wt = TRKB-wt (Homo sapiens (Human), UniProt Q16620); experiment: Biochemical kinase assay, TRKB-wt; conditions: apparent inhibitory constant, kinase domain, Morrison equation; read-out: TRKB-wt Ki^app
How it was run: (§1)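 Kinase domains (in enzyme solution: ALK I1171N/D1203N 4 nM, ROS1 0.6 nM, ROS1-G2032R 0.5 nM, TRKB 1.5 nM) were mixed with substrate solution holding 2 mM ATP and 26 μM AQT0101 (ALK, ROS1) or AQT0104 (TRKB). Initial rates from 120-min fluorescence kinetics at 30 °C were fitted to the Morrison equation (Ki^app).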

ALK I1171N/D1203N = ALK I1171N/D1203N (Homo sapiens (Human), UniProt Q9UM73, D1203N/I1171N); experiment: Biochemical kinase assay, ALK I1171N/D1203N; conditions: apparent inhibitory constant, kinase domain, Morrison equation; read-out: ALK-I1171N-D1203N Ki^app
How it was run: as §1

Ba/F3 ETV6-TRKB = Ba/F3 ETV6-TRKB (Homo sapiens, UniProt Q16620); experiment: Ba/F3 cell proliferation assay, ETV6-TRKB; assay type: cell-based
How it was run: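 Ba/F3 cells retrovirally transduced with ETV6-TRKB and selected for IL-3-independent growth with puromycin were treated with 3-fold compound dilutions for 72 h. Viability read by CellTiter-Glo luminescence; IC50 from percent inhibition by four-parameter logistic fit.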

ROS1 = ROS1 (Homo sapiens (Human), UniProt P08922); experiment: Biochemical kinase assay, ROS1-wt; conditions: apparent inhibitory constant, kinase domain, Morrison equation; read-out: ROS1-wt Ki^app
Procedure: (§2) First, 250 nL of compound dissolved in DMSO (100-fold of the desired concentration) was dispensed into a 384-well plate. A 12.5 μL substrate solution containing ATP (2 mM) and fluorogenic phosphorylation substrate AQT0101 ([…] for ALK and ROS, AssayQuant) or AQT0104 (26 μM for TRKB, AssayQuant) in buffer (50 mM HEPES pH 7.5, […], 0.5 mM EGTA, 10 mM MgCl2) was added and mixed thoroughly. Then, a 12.5 μL kinase solution containing ALK (1.5 nM, Carna, 08-518), ALK I1171N/D1203N (4 nM, SignalChem, custom-made), ROS1 (0.6 nM, Carma, 08-163), ROS1-G2032R (0.5 nM, SignalChem, R14-121BG), or TRKB-wt (1.5 nM, SignalChem, N17-11G) kinase domains in buffer ([…] pH 7.5, 0.01% Brij-[…], 0.4 mg/mL BSA, 0.5 mM EGTA, and 10 mM MgCl2) was added and mixed thoroughly. The plate was sealed and read by SpectraMax Paradigm at λ=485 nm every 2 minutes for 120 minutes at 30° C. Initial rates of reaction (v) were calculated from the change in fluorescence intensity over time during the initial, linear portion of the reaction. Finally, apparent inhibitory constants (Ki^app) were determined from regression of v and I (inhibitor concentration) to Morrison Equation (E=enzyme concentration): […]
(§3) Compound potency can be interpreted by binning Ki^app values against the targets: bin A for high potency, Ki^app<50 nM; bin B for medium potency, 50 nM≤Ki^app<500 nM; and bin C for low potency, Ki^app≥500 nM. […] “nd” means not determined.

ROS1-G2032R = ROS1-G2032R (Homo sapiens (Human), UniProt P08922, G2032R); experiment: Biochemical kinase assay, ROS1-G2032R; conditions: apparent inhibitory constant, kinase domain, Morrison equation; read-out: ROS1-G2032R Ki^app
Procedure: as §2, §3

[2] = Ba/F3 stable cells, 72 hours, CellTiter-Glo; read-out: ETV6-TRKB IC50

Ba/F3 EML4-ALK v1 I1171N/D1203N, sequence (Q9UM73 other isoform, or with tags, fused parts or gaps I1171N/D1203N): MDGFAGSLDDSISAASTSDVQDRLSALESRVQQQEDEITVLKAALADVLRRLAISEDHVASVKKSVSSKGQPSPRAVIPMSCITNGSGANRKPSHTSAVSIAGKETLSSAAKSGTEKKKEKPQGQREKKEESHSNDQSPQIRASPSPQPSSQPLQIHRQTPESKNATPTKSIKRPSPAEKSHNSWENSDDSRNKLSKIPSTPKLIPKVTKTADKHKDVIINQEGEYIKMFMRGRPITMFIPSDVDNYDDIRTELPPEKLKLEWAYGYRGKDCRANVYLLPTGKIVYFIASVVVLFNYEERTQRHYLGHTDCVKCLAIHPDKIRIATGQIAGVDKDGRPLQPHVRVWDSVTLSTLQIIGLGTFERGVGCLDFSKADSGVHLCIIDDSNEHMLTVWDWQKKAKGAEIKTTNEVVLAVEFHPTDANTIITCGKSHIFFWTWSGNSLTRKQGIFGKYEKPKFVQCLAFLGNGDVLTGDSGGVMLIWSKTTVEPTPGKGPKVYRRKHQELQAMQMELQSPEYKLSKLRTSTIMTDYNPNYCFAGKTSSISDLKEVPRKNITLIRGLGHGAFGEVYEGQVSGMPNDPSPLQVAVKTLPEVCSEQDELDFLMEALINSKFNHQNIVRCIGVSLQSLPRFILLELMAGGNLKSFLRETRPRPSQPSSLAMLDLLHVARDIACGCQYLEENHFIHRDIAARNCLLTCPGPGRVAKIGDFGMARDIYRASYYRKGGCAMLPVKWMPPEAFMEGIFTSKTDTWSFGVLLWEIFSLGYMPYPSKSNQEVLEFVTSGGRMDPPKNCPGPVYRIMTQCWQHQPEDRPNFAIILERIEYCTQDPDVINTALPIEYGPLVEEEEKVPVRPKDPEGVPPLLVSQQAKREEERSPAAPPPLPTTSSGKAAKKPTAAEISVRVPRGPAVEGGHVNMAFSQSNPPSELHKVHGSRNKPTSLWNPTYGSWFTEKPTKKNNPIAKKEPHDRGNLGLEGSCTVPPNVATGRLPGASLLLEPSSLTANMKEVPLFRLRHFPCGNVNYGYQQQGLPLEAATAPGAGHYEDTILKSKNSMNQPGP
Ba/F3 ETV6-TRKB, sequence (Q16620 32-822 limits assumed, change not shown): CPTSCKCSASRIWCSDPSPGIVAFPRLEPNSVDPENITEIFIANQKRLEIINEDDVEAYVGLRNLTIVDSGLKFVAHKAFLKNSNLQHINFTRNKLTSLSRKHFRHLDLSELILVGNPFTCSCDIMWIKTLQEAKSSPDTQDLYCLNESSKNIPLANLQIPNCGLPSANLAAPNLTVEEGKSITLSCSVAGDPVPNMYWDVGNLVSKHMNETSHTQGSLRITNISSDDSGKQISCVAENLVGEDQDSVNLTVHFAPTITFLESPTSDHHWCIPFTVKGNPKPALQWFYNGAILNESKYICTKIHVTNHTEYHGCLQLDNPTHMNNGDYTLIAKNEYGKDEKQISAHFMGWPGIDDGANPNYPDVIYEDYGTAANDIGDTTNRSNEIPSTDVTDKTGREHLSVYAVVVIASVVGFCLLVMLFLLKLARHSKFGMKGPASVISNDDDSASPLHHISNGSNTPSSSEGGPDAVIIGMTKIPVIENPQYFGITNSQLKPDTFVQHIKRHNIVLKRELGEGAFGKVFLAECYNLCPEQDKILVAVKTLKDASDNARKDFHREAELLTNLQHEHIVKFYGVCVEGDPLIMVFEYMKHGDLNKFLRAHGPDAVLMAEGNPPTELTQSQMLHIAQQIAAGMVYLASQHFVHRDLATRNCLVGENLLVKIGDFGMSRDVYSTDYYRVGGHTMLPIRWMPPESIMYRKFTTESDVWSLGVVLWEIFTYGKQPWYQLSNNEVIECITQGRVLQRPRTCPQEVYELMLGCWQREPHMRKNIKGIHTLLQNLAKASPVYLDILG
TRKB-wt, sequence (Q16620 538-807): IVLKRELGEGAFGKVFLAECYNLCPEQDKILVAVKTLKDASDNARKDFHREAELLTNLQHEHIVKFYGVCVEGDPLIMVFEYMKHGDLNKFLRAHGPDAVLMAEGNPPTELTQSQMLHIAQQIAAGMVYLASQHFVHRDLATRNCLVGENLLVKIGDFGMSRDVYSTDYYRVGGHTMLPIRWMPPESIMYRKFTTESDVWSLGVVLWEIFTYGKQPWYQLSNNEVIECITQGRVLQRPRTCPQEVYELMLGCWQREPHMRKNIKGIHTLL
ALK I1171N/D1203N, sequence (Q9UM73 1116-1392 I1171N/D1203N): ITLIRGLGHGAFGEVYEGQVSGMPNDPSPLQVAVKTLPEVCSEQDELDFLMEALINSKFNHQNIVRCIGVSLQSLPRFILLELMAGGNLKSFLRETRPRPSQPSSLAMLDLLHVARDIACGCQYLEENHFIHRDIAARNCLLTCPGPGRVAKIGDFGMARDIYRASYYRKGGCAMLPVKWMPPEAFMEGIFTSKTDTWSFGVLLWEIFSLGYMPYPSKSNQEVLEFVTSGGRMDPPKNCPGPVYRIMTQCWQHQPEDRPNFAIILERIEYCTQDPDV
Ba/F3 EML4-ALK v1 I1171N, sequence (Q9UM73 other isoform, or with tags, fused parts or gaps I1171N): as the sequence (Q9UM73 other isoform, or with tags, fused parts or gaps I1171N/D1203N) above, with N642D counted along it
ROS1-G2032R, sequence (P08922 1945-2222 G2032R): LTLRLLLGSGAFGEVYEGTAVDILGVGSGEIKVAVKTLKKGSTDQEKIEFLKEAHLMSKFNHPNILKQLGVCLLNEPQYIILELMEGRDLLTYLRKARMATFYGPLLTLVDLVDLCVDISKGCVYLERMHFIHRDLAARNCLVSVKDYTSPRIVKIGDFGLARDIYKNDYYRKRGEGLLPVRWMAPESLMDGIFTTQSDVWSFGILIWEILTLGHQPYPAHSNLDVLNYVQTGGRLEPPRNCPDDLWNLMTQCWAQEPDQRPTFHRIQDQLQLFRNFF
ROS1, sequence (P08922 1945-2222): as the sequence (P08922 1945-2222 G2032R) above, with R88G counted along it

Row | SMILES | IC50 [1] [nM] | IC50 (Ba/F3 EML4-ALK v1 I1171N) [nM] | Ki (TRKB-wt) [nM] | Ki (ALK I1171N/D1203N) [nM] | IC50 (Ba/F3 ETV6-TRKB; [2]) [nM] | Ki (ROS1) [nM] | Ki (ROS1-G2032R) [nM] | ETV6-TRKB / EML4-ALK v1 I1171N/D1203N [1] | ETV6-TRKB / EML4-ALK v1 I1171N (Ba/F3 EML4-ALK v1 I1171N) | IC50 (Ba/F3 ETV6-TRKB; read-out: ETV6-TRKB IC50; Ba/F3 stable cells, 72 hours, CellTiter-Glo) [nM]
1 | C[C@H]1Oc2cc(cnc2N)-c2c(c(C#N)nn2CC2CC2)Cc2cccnc2-c2ccc(F)cc21 [Example 66, (R)-23-amino-3-(cyclopropylmethyl)-17-fluoro-20-methyl-21-oxa-3,4,12,24-tetraazapentacyclo[20.3.1.0^2,^6.0^8,^13.0^14,^19]hexacosa-1(25),2(6),4,8(13),9,11,14,16,18,22(26),23-undecaene-5-carbonitrile] | > 500 | 50 to 500 |  |  |  | < 50 | < 50 |  |  | 
2 | Cc1ocnc1-c1nn(CC2CC2)c2c1Cc1cccnc1-c1ccc(F)cc1[C@@H](C)Oc1cc-2cnc1N [Example 3, (20R)-3-(cyclopropylmethyl)-17-fluoro-20-methyl-5-(5-methyl-1,3-oxazol-4-yl)-21-oxa-3,4,12,24-tetraazapentacyclo[20.3.1.0^2,^6.0^8,^13.0^14,^19]hexacosa-1(25),2(6),4,8(13),9,11,14,16,18,22(26),23-undecaen-23-amine] | 0.1 to 50 | 0.1 to 50 | 50 to 500 | < 50 | > 500 |  |  | B (bin B for high selectivity, ratio≥10-fold but<30) | A (bin A for very high selectivity, ratio≥30-fold) | 
3 | CCn1nc(C#N)c2c1-c1cnc(N)c(c1)O[C@H](C)c1cc(F)ccc1-c1nn(C)cc1C2 [Example 4, (R)-22-amino-3-ethyl-16-fluoro-10-methyl-19-methyl-20-oxa-3,4,10,11,23-pentaazapentacyclo[19.3.1.0^2,^6.0^8,^12.0^13,^18]pentacosa-1(24),2(6),4,8,11,13,15,17,21(25),22-decaene-5-carbonitrile] | > 500 | 50 to 500 |  |  | 50 to 500 | < 50 | < 50 | D (bin D for low selectivity, ratio<1) | C (bin C for moderate selectivity, ratio≥1 but<10) | 
4 | CCn1nc(C(N)=O)c2c1-c1cnc(N)c(c1)O[C@H](C)c1cc(F)ccc1-c1nn(C)cc1C2 [Example 5, (R)-22-amino-3-ethyl-16-fluoro-10-methyl-19-methyl-20-oxa-3,4,10,11,23-pentaazapentacyclo[19.3.1.0^2,6.0^8,12.0^13,18]pentacosa-1(24),2(6),4,8,11.13,15,17,21(25),22-decaene-5-carboxamide] | 50 to 500 | 0.1 to 50 | < 50 | < 50 | 50 to 500 |  |  | D (bin D for low selectivity, ratio<1) | C (bin C for moderate selectivity, ratio≥1 but<10) | 
5 | C[C@H]1Oc2cc(cnc2N)-c2c(CC3CC3)nn(C(=O)N(C)C)c2Cc2cccnc2-c2ccc(F)cc21 [Example 20, (R)-5-(N,N-dimethylcarbamoyl)-3-(cyclopropylmethyl)-17-fluoro-20-methyl-21-oxa-4,5,12,24-tetraazapentacyclo[20.3.1.0^2,^6.0^8,^13.0^14,^19]hexacosa-1(25),2(6),3,8(13),9,11,14,16,18,22(26),23-undecaen-23-ylamine] | 0.1 to 50 | 0.1 to 50 | 50 to 500 | < 50 |  |  |  | A (bin A for very high selectivity, ratio≥30-fold) | A (bin A for very high selectivity, ratio≥30-fold) | 50 to 500
6 | C[C@H]1Oc2cc(cnc2N)-c2c(c(S(C)(=O)=O)nn2CC2CC2)Cc2cn(C)nc2-c2ccc(F)cc21 [Example 2, (R)-3-(cyclopropylmethyl)-16-fluoro-5-mesyl-10-methyl-19-methyl-20-oxa-3,4,10,11,23-pentaazapentacyclo[19.3.1.0^2,6.0^8,12.0^13,18]pentacosa-1(24),2(6),4,8,11,13,15,17,21(25),22-decaen-22-ylamine] | 50 to 500 |  | ≥ 500 | 50 to 500 | > 500 |  |  | C (bin C for moderate selectivity, ratio≥1 but<10) |  | 

Further lines, with some results ahead:

Row | IC50 [1] [nM] | IC50 (Ba/F3 EML4-ALK v1 I1171N) [nM] | Ki (TRKB-wt) [nM] | Ki (ALK I1171N/D1203N) [nM] | IC50 (Ba/F3 ETV6-TRKB; [2]) [nM] | Ki (ROS1) [nM] | Ki (ROS1-G2032R) [nM] | SMILES | ETV6-TRKB / EML4-ALK v1 I1171N/D1203N [1] | ETV6-TRKB / EML4-ALK v1 I1171N (Ba/F3 EML4-ALK v1 I1171N) | IC50 (Ba/F3 ETV6-TRKB; read-out: ETV6-TRKB IC50; Ba/F3 stable cells, 72 hours, CellTiter-Glo) [nM]
7 | 0.1 to 50 | 0.1 to 50 | 50 to 500 | < 50 | > 500 |  |  | C[C@H]1Oc2cc(cnc2N)-c2c(c(C(=O)N(C)C)nn2C2CCC2)Cc2cn(C)nc2-c2ccc(F)cc21 [Example 35, N,N-dimethyl-(R)-22-amino-3-cyclobutyl-16-fluoro-10-methyl-19-methyl-20-oxa-3,4,10,11,23-pentaazapentacyclo[19.3.1.0^2,^6.0^8,^12.0^13,^18]pentacosa-1(24),2(6),4,8,11,13,15,17,21(25),22-decaene-5-carboxamide] | A (bin A for very high selectivity, ratio≥30-fold) | A (bin A for very high selectivity, ratio≥30-fold) | 
8 | 0.1 to 50 | 0.1 to 50 | 50 to 500 | < 50 | > 500 |  |  | C[C@H]1Oc2cc(cnc2N)-c2c(c(C(=O)N(C)C)nn2CC2CC2)Cc2cccnc2-c2ccc(F)cc21 [Example 10, N,N-dimethyl-(R)-23-amino-3-(cyclopropylmethyl)-17-fluoro-20-methyl-21-oxa-3,4,12,24-tetraazapentacyclo[20.3.1.0^2,^6.0^8,^13.0^14,^19]hexacosa-1(25),2(6),4,8(13),9,11,14,16,18,22(26),23-undecaene-5-carboxamide] | A (bin A for very high selectivity, ratio≥30-fold) | A (bin A for very high selectivity, ratio≥30-fold) | 
9 | 0.1 to 50 | 50 to 500 | ≥ 500 | < 50 | > 500 |  |  | C[C@H]1Oc2cc(cnc2N)-c2c(c(C(=O)N(C)C)nn2CC2CC2)Cc2cccnc2-c2c(F)cc(F)cc21 [Example 45, N,N-dimethyl-(R)-23-amino-3-(cyclopropylmethyl)-15,17-difluoro-20-methyl-21-oxa-3,4,12,24-tetraazapentacyclo[20.3.1.0^2,^6.0^8,^13.0^14,^19]hexacosa-1(25),2(6),4,8(13),9,11,14,16, 18,22(26),23-undecaene-5-carboxamide] | A (bin A for very high selectivity, ratio≥30-fold) | B (bin B for high selectivity, ratio≥10-fold but<30) | 
10 | 0.1 to 50 | 0.1 to 50 | ≥ 500 | < 50 | > 500 |  |  | C[C@H]1Oc2cc(cnc2N)-c2c(c(C(=O)N(C)C)nn2CC2CC2)Cc2cn(C)nc2-c2c(F)cc(F)cc21 [Example 32, N,N-dimethyl-(R)-22-amino-3-(cyclopropylmethyl)-14,16-difluoro-10-methyl-19-methyl-20-oxa-3,4,10,11,23-pentaazapentacyclo[19.3.1.0^2,^6.0^8,^12.0^13,^18]pentacosa-1(24),2(6),4,8,11,13,15,17,21(25),22-decaene-5-carboxamide] | A (bin A for very high selectivity, ratio≥30-fold) | A (bin A for very high selectivity, ratio≥30-fold) | 
